Results published in patent US20130078194A1, “COMPOSITIONS FOR DENTAL TREATMENT COMPRISING LIPOTEICHOIC ACIDS OR PARTS THEREOF LIKE MONO- OR POLYGLYCERPHOSPHATES” (LUNAMED AG, priority 2010, published 2013).
Several values for one entry are separate records, joined by “and”; a condition that tells them apart may be missing. Equal values may be shown once.

System: Streptococcus mutans
Assay: Tooth experiment: biofilm formation of Streptococcus mutans on pre-treated human incisors (Safranin staining, phase analysis of pictures)
Assay type: cell-based
Settings: for % Area covered with bacteria: single pictures (4 per tooth), 3 days S. mutans; for % Mean area covered: mean of 4 pictures
Protocol: To investigate the influence of glycerol phosphate, polyglycerol phosphate and LTA-T on the biofilm formation of Streptococcus mutans on human teeth, incisors (1/condition) were preincubated under rotating conditions (50 rpm) at 37° C. for 1 h with: • 1. 5000 μg/ml glycerol phosphate in PBS • 2. 20000 μg/ml glycerol phosphate in PBS • 3. 277 μg/ml polyglycerol phosphate (PGP1) in PBS • 4. 1106 μg/ml polyglycerol phosphate (PGP1) in PBS • 5. 25 μg/ml LTA-T in PBS • 6. PBS as control
These teeth were then washed with ultrapure H2O by repetitive dipping (3 liquid air interfaces) and incubated in a saturated suspension of Streptococcus mutans (in BHI broth, 3% sucrose) under rotating conditions (50 rpm) at 37° C. for 3 days. Each day, bacteria were fed with 1 ml of a solution of 30% sucrose in PBS to enhance biofilm formation. After incubation, the teeth were washed with ultrapure H2O, air dried for 2 h and stained with Safranin (0.5% v/v) solution. The stained teeth were air dried and photographed (see above).
Of each tooth 4 representative pictures were taken. The pictures were analyzed with SigmaPlot Software, Version 11.0 using phase analysis: The color (phase) of the bacterial biofilm was defined and % area of the chosen color on each picture was calculated.
The difference between groups was compared using the unpaired t-test.

| Structure (SMILES) | adhesion of bacteria compared to control tooth (pre-treatment 277 μg/ml) | % Area covered with bacteria (pre-treatment 277 μg/ml in PBS 1 h) | % Mean area covered (pre-treatment 277 μg/ml) | adhesion of bacteria to the tooth surface (pre-treatment 1106 μg/ml) | decrease of biofilm formation compared to control tooth (pre-treatment 1106 μg/ml) | % Mean area covered (pre-treatment 1106 μg/ml) | adhesion of bacteria compared to control tooth (pre-treatment 5000 μg/ml) | % Area covered with bacteria (pre-treatment 5000 μg/ml in PBS 1 h) | % Mean area covered (pre-treatment 5000 μg/ml) | adhesion of bacteria compared to control tooth (pre-treatment 20000 μg/ml) | % Area covered with bacteria (pre-treatment 20000 μg/ml in PBS 1 h) | % Mean area covered (pre-treatment 20000 μg/ml) |
| --- | --- | --- | --- | --- | --- | --- | --- | --- | --- | --- | --- | --- |
| O=P(O)(OC[C@H](O)COP(=O)(O)OC[C@H](O)COP(=O)(O)OC[C@H](O)CO)OC[C@@H](O)COP(=O)(O)OC[C@@H](O)CO [PGP1] | significantly reduced | 1.93% and 0.19% and 0.08% and 0.40% | 0.65% | bacteria were still able to adhere to the tooth surface | still significant | 15.16% | – | – | – | – | – | – |
| O=P(O)(O)OC(CO)CO [glycerol phosphate, beta glycerol phosphate] | – | – | – | – | – | – | significantly reduced | 0.00% and 0.02% | 0.00% | significantly reduced | 0.00% | 0.00% |
